Test system: normal human dermal fibroblasts
Assay: Incorporation of radioactive proline (collagen synthesis) into cultures of normal human dermal fibroblasts
Type: cell-based
Protocol: The study was conducted by measuring the incorporation of radioactive proline into cultures of normal human dermal fibroblasts. The fibroblast cultures were prepared according to conventional cell culture methods, i.e., in MEM/M199 medium marketed by Gibco in the presence of sodium bicarbonate (1.87 mg/ml), of L-glutamine (2 mM), of penicillin (50 IU/ml) and of 10% of fetal calf serum (Gibco). The assay was carried out on cell cultures at 80% confluency, in a 24-well plate. […] The labeling with tritiated proline (L-[2,3-^3H]-proline sold by Amersham, 33 (μCi/ml) was carried out for 24 hours. The level of tritiated proline incorporated was measured at the end of the assay by acid precipitation of the proteins on filters and liquid scintillation counting. […] A positive control (vitamin C at 20 (g/ml) known to stimulate collagen synthesis was introduced into the assay as a reference. The results of this assay, expressed as percentages of activation, are reported in the following Table I: […]

Q: What does the source list for `O=C1O[C@H]([C@@H](O)CO)C(O)=C1O` [Vitamin C]?
A: cpm (tritiated proline incorporated) (vitamin C at 20 (g/ml, positive control), untreated cells 7498 cpm): 13091 cpm; percentage of activation of proline incorporation (vitamin C at 20 (g/ml, versus untreated cells)): 75%
